Data set [1] can be described thus: CHI Log D procedure. Particulars: for CHI Log D: pH 7.4; for chromatographic logD: pH 7.4, CHI Log D. It is filed as physicochemical.
Data set [2] has as its target T1, full-length B-Catenin (Uniprot ID P35222) (Homo sapiens, UniProt P35222).
T1 construct: 65 nM full-length B-Catenin (Uniprot ID P35222)
T1 sequence (P35222 1-781): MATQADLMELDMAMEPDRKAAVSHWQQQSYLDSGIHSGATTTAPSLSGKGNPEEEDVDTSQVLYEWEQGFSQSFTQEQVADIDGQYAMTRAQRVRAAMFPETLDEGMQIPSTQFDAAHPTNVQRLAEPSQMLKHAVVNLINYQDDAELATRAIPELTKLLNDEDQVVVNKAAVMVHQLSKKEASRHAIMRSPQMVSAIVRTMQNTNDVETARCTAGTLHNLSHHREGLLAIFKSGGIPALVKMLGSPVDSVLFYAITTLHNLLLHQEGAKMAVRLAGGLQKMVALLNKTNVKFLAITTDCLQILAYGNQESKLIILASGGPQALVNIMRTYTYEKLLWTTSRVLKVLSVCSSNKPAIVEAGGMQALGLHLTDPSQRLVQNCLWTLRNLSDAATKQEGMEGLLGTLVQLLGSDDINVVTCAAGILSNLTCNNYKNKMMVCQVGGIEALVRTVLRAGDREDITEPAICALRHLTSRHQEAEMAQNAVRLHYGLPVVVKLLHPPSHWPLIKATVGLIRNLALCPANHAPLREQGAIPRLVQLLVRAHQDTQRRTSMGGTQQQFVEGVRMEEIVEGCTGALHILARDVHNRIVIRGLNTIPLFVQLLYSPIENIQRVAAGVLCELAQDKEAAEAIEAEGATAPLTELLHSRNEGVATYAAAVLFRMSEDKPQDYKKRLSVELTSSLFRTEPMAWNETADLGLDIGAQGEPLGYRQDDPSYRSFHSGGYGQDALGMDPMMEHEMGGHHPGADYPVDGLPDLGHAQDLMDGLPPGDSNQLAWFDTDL
Briefly: Alphascreen binding assay (beta-catenin / biotin-TCF4 10-53). In outline:
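Final concentrations: 65 nM full-length human β-catenin plus 10 nM biotin-TCF4(10-53) peptide, test peptide 3-fold from 10 uM to 5 nM, preincubated 15 min at 20 °C in Tris pH 8.0/250 mM NaCl buffer. Nickel-chelate AlphaScreen donor/acceptor beads then added for 60 min in the dark; duplicate reads fitted to 1:1 binding model with Hill slope.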

As a reminder, the EC50 is the midpoint of the concentration-response curve. Low values mean greater potency, high ones weaker potency. With `CC(=O)N[C@@H](Cc1ccccc1)C(=O)N[C@@H](CC(=O)O)C(=O)N[C@@H](C)C(=O)N[C@]1(C)CCCCCCC=CCOC(=O)N2CC[C@@](C(=O)N[C@@H](Cc3ccccc3)C(=O)N[C@@H](Cc3c[nH]c4ccccc34)C(=O)N[C@@H](CCC(N)=O)C(N)=O)(C2)NC(=O)[C@H](C(C)C)NC(=O)[C@H](CCc2ccc(O)cc2)NC(=O)[C@H](C)NC(=O)[C@H](C)NC(=O)[C@H](CC(=O)O)NC(=O)[C@H](CC(=O)O)NC1=O` [I-119, Ac-Phe-Asp-Ala-R8-Asp-Asp-Ala-Ala-hTyr-Val-PyrS-Phe-Trp-Gln-NH2], in data set [1], the “CHI Log D” value was 1.17. The molecule also had an EC50 in data set [2] of 4940 nM.

With `CC(=O)N1CCC[C@]12CC=CCCCC1(CCCC=CCCCCCC[C@@](C)(C(=O)N[C@@H](Cc3ccccc3)C(=O)N[C@@H](Cc3c[nH]c4ccccc34)C(=O)N[C@@H](CCC(N)=O)C(N)=O)NC(=O)[C@H](C(C)C)NC(=O)[C@H](Cc3ccccc3)NC(=O)[C@H](C)NC(=O)[C@H](C)NC(=O)[C@H](CC(N)=O)NC(=O)[C@H](CC(=O)O)NC1=O)NC(=O)[C@H](C)NC(=O)[C@H](CC(=O)O)NC2=O` (stereo partly drawn) [I-124, Ac-PL3-Asp-Ala-B5-Asp-Asn-Ala-Ala-Phe-Val-S8-Phe-Trp-Gln-NH2], in data set [1], the “CHI Log D” value amounted to 2.252. In addition, the half-maximal effective concentration (EC50) in data set [2] was 1280 nM.

Regarding `CC(=O)N1CCC[C@]12CC=CCCCC1(CCCC=CCCCCCC[C@@](C)(C(=O)N[C@@H](Cc3ccccc3)C(=O)N[C@@H](Cc3c[nH]c4ccccc34)C(=O)N[C@@H](CCC(N)=O)C(N)=O)NC(=O)[C@H](C(C)C)NC(=O)[C@H](Cc3ccccc3)NC(=O)[C@H](C)NC(=O)[C@H](C)NC(=O)[C@H](CCC(N)=O)NC(=O)[C@H](CC(=O)O)NC1=O)NC(=O)[C@H](C)NC(=O)[C@H](CC(=O)O)NC2=O` (stereo partly drawn) [I-126, Ac-PL3-Asp-Ala-B5-Asp-Gln-Ala-Ala-Phe-Val-S8-Phe-Trp-Gln-NH2], the “CHI Log D” value in data set [1] amounted to 2.239. Also, in data set [2], the EC50 stood at 1480 nM.

Take `CC(=O)N1CCC[C@]12CC=CCCCC1(CCCC=CCOC(=O)N(C)CCC[C@@](C)(C(=O)N[C@@H](Cc3ccccc3)C(=O)N[C@@H](Cc3c[nH]c4ccccc34)C(=O)N[C@@H](CCC(N)=O)C(N)=O)NC(=O)[C@H](C(C)C)NC(=O)[C@H](Cc3ccccc3)NC(=O)[C@H](C)NC(=O)[C@H](C)NC(=O)[C@H](CCC(=O)O)NC(=O)[C@H](CC(=O)O)NC1=O)NC(=O)[C@H](C)NC(=O)[C@H](CC(=O)O)NC2=O` (stereo partly drawn) [I-130, Ac-PL3-Asp-Ala-B5-Asp-Glu-Ala-Ala-Phe-Val-SeN-Phe-Trp-Gln-NH2]: the “CHI Log D” value in data set [1] is 1.346. A half-maximal effect in data set [2] (EC50) was put at 797 nM.

Consider `CC(=O)N1CCC[C@]12CC=CCCCC1(CCCC=CCCCCCC[C@@](C)(C(=O)N[C@@H](Cc3ccccc3)C(=O)N[C@@H](Cc3c[nH]c4ccccc34)C(=O)NC(C)(C)C(N)=O)NC(=O)[C@H](C(C)C)NC(=O)[C@H](Cc3ccccc3)NC(=O)[C@H](C)NC(=O)[C@H](C)NC(=O)[C@H](CCC(=O)O)NC(=O)[C@H](CC(=O)O)NC1=O)NC(=O)[C@H](C)NC(=O)[C@H](CC(=O)O)NC2=O` (stereo partly drawn) [I-133, Ac-PL3-Asp-Ala-B5-Asp-Glu-Ala-Ala-Phe-Val-S8-Phe-Trp-Aib-NH2], for which, in data set [1], the “CHI Log D” value turned out to be 2.383. Further, in data set [2], the EC50 was 495 nM.

On to `CC(=O)N1CCC[C@]12CC=CCCCC1(CCCC=CCCCCCC[C@@](C)(C(=O)N[C@@H](Cc3ccccc3)C(=O)N[C@@](C)(Cc3c[nH]c4ccccc34)C(=O)N[C@@H](CCC(N)=O)C(N)=O)NC(=O)[C@H](C(C)C)NC(=O)[C@H](Cc3ccccc3)NC(=O)[C@H](C)NC(=O)[C@H](C)NC(=O)[C@H](CCC(=O)O)NC(=O)[C@H](CC(=O)O)NC1=O)NC(=O)[C@H](C)NC(=O)[C@H](CC(=O)O)NC2=O` (stereo partly drawn) [I-136, Ac-PL3-Asp-Ala-B5-Asp-Glu-Ala-Ala-Phe-Val-S8-Phe-aMeW-Gln-NH2], for which the “CHI Log D” value in data set [1] is listed as 2.136. Moreover, the EC50 in data set [2] was 3300 nM.

As usually defined, the chromatographic logD is lipophilicity estimated from chromatographic retention. A high value points to higher lipophilicity. As for `CC(=O)N1CCC[C@]12CC=CCCCC1(CCCC=CCCCCCC[C@@](C)(C(=O)N[C@@H](Cc3ccccc3)C(=O)N[C@@H](Cc3ccc4ccccc4c3)C(N)=O)NC(=O)[C@H](C(C)C)NC(=O)[C@H](Cc3ccccc3)NC(=O)[C@H](C)NC(=O)[C@H](C)NC(=O)[C@H](CCC(=O)O)NC(=O)[C@H](CC(=O)O)NC1=O)NC(=O)[C@H](C)NC(=O)[C@H](CC(=O)O)NC2=O` (stereo partly drawn) [I-141, Ac-PL3-Asp-Ala-B5-Asp-Glu-Ala-Ala-Phe-Val-S8-Phe-2NapA-NH2], in data set [1], the chromatographic logD was 2.43. Besides, the EC50 in data set [2] stood at 5450 nM.

Take `CC(=O)N1CCC[C@]12CC=CCCCC1(CCCC=CCCCCCC[C@@](C)(C(=O)N[C@@H](Cc3ccccc3)C(=O)N[C@@H](Cc3c[nH]c4ccc(F)cc34)C(=O)N[C@@H](CCC(N)=O)C(N)=O)NC(=O)[C@H](C(C)C)NC(=O)[C@H](Cc3ccccc3)NC(=O)[C@H](C)NC(=O)[C@H](C)NC(=O)[C@H](CCC(=O)O)NC(=O)[C@H](CC(=O)O)NC1=O)NC(=O)[C@H](C)NC(=O)[C@H](CC(=O)O)NC2=O` (stereo partly drawn) [I-146, Ac-PL3-Asp-Ala-B5-Asp-Glu-Ala-Ala-Phe-Val-S8-Phe-5FW-Gln-NH2]: the chromatographic logD in data set [1] came out at 2. For the same molecule, in data set [2], the EC50 amounted to 1220 nM.

Consider `CC[C@H](C)[C@H](NC(=O)[C@H](CC(=O)O)NC(C)=O)C(=O)N[C@]1(C)CCN(C)C(=O)OCC=CCCCCC[C@@](C)(C(=O)N[C@@H](Cc2ccccc2)C(=O)N[C@@H](Cc2c[nH]c3ccccc23)C(=O)N[C@@H](Cc2c[nH]cn2)C(N)=O)NC(=O)[C@H](CCC(N)=O)NC(=O)[C@H](Cc2ccccc2)NC(=O)[C@H](C)NC(=O)[C@H](C)NC(=O)[C@H](CC(=O)O)NC(=O)[C@H](CC(=O)O)NC1=O` [I-150, Ac-Asp-Ile-RdN-Asp-Asp-Ala-Ala-Phe-Gln-S7-Phe-Trp-His-NH2], for which, in data set [1], the “CHI Log D” value was 1.297. The same molecule came in with an EC50 in data set [2] of 1940 nM.

On to `CC[C@H](C)[C@H](NC(=O)[C@H](CC(=O)O)NC(C)=O)C(=O)N[C@]1(C)CCN(C)C(=O)OCC=CCCCCC[C@@](C)(C(=O)N[C@@H](Cc2ccccc2)C(=O)N[C@@H](Cc2c[nH]c3ccccc23)C(N)=O)NC(=O)[C@H](CCC(N)=O)NC(=O)[C@H](Cc2ccccc2)NC(=O)[C@H](C)NC(=O)[C@H](C)NC(=O)[C@H](CC(=O)O)NC(=O)[C@H](CC(=O)O)NC1=O` [I-151, Ac-Asp-Ile-RdN-Asp-Asp-Ala-Ala-Phe-Gln-S7-Phe-Trp-NH2], for which, in data set [1], the chromatographic logD is 1.35. Also, a half-maximal response in data set [2] (EC50) required 5500 nM.

As to `CC[C@H](C)[C@H](NC(=O)[C@H](CC(=O)O)NC(=O)[C@H](C)NC(C)=O)C(=O)N[C@]1(C)CCN(C)C(=O)OCC=CCCCCC[C@@](C)(C(=O)N[C@@H](Cc2ccccc2)C(=O)N[C@@H](Cc2c[nH]c3ccccc23)C(=O)N[C@@H](C)C(N)=O)NC(=O)[C@H](C)NC(=O)[C@H](Cc2ccccc2)NC(=O)[C@H](C)NC(=O)[C@H](C)NC(=O)[C@H](CCC(=O)O)NC(=O)[C@H](CC(=O)O)NC1=O` [I-155, Ac-Ala-Asp-Ile-RdN-Asp-Glu-Ala-Ala-Phe-Ala-S7-Phe-Trp-Ala-NH2], the “CHI Log D” value in data set [1] came to 1.415. This molecule also showed an EC50 in data set [2] of 734 nM.

Molecule `CC(=O)N[C@@H](C)C(=O)N[C@@H](CC(=O)O)C(=O)N[C@@H](C)C(=O)N[C@]1(C)CCN(C)C(=O)OCC=CCCCCC[C@@](C)(C(=O)N[C@@H](Cc2ccccc2)C(=O)N[C@@H](Cc2c[nH]c3ccccc23)C(=O)N[C@@H](Cc2c[nH]cn2)C(N)=O)NC(=O)[C@H](CCC(N)=O)NC(=O)[C@H](Cc2ccccc2)NC(=O)[C@H](C)NC(=O)[C@H](C)NC(=O)[C@H](CCC(=O)O)NC(=O)[C@H](CC(=O)O)NC1=O` [I-156, Ac-Ala-Asp-Ala-RdN-Asp-Glu-Ala-Ala-Phe-Gln-S7-Phe-Trp-His-NH2] registered a chromatographic logD in data set [1] of 1.07. Besides, the EC50 in data set [2] stood at 4180 nM.

As for `CC(=O)NC(C)(C)C(=O)N[C@@H](CC(=O)O)C(=O)N[C@@H](C)C(=O)N[C@]1(C)CCCCCCC=CCOC(=O)N2CC[C@@](C(=O)N[C@@H](Cc3ccccc3)C(=O)N[C@@H](Cc3c[nH]c4ccccc34)C(=O)N[C@@H](CCC(N)=O)C(N)=O)(C2)NC(=O)[C@H](C(C)C)NC(=O)[C@H](Cc2ccccc2)NC(=O)[C@H](C)NC(=O)[C@H](C)NC(=O)[C@H](CCC(=O)O)NC(=O)[C@H](CC(=O)O)NC1=O` [I-158, Ac-Aib-Asp-Ala-R8-Asp-Glu-Ala-Ala-Phe-Val-PyrS-Phe-Trp-Gln-NH2], the “CHI Log D” value in data set [1] came out at 1.23. For the same molecule, in data set [2], the EC50 is 2170 nM.

On to `CC(=O)NC(C)(C)C(=O)N[C@@H](CC(=O)O)C(=O)N[C@@H](C)C(=O)N[C@]1(C)CCCCCCC=CCOC(=O)N2CC[C@@](C(=O)N[C@@H](Cc3ccccc3)C(=O)N[C@@H](Cc3c[nH]c4ccccc34)C(=O)NC(C)(C)C(N)=O)(C2)NC(=O)[C@H](C(C)C)NC(=O)[C@H](Cc2ccccc2)NC(=O)[C@H](C)NC(=O)[C@H](C)NC(=O)[C@H](CCC(=O)O)NC(=O)[C@H](CC(=O)O)NC1=O` [I-160, Ac-Aib-Asp-Ala-R8-Asp-Glu-Ala-Ala-Phe-Val-PyrS-Phe-Trp-Aib-NH2], for which, in data set [1], the “CHI Log D” value was found to be 1.49. Further, the 50% effective concentration (EC50) in data set [2] was found to be 3240 nM.

These data come from patent publication US20240116985A1, “STAPLED PEPTIDES AND METHODS THEREOF” (priority 2020, published 2024).
